Measurements from patent US7829528B2, “Compositions and methods for treating STAT-6 associated diseases or conditions” (The Rockefeller University, priority 2004, dated 2010).
Where no end group is shown, it is not given here.

Tests used:
IFN-gamma = assay: Ovalbumin-induced IFN-gamma production by splenocytes from ovalbumin-sensitized mice (ELISA); assay type: cell-based, BALB/c mice; details: ovalbumin 100 μg/mL + 100 μM peptide added daily, four days; ovalbumin alone 567.9 ± 93.1
Experimental: (§1) Splenocytes from ovalbumin-sensitized mice were cultured for four days with no antigen, with ovalbumin alone, or with ovalbumin plus the STAT-6-IP or a STAT-6 Tyr-641 mutant (STAT-6-CP; Tyr-Ala-Arg-Ala-Ala-Ala-Arg-Gln-Ala-Arg-Ala-Gly-Arg-Gly-Phe-Val-Ser-Thr-Thr; SEQ ID NO:8). The STAT-6-IP and STAT-6-CP were added to splenocyte cultures daily. Treatment with the STAT-6-IP, but not the STAT-6-CP, reduced the supernatant levels of both IL-4 and IL-13 (Table 3).
(§2) BALB/c mice were sensitized systemically by two weekly i.p. injections of 0.025% ovalbumin mixed with 4 mg/mL Al(OH)3. One week after the second sensitization, mice were sacrificed and spleens harvested. A single cell suspension of splenocytes (5×10^6 cells/mL) was cultured in RPMI-1640 medium containing 10% heat-inactivated fetal bovine serum and 2 mM L-glutamine, 50 μM 2-mercaptoethanol, 100 U/mL penicillin, and 100 μg/mL streptomycin sulfate. Splenocytes were cultured for four days in the presence or absence of 100 μg/mL ovalbumin, either alone or with 100 μM STAT-6-IP or STAT-6-CP, which were added daily. After four days, culture supernatants were harvested to quantify cytokine production by ELISA. […] Cytokine expression was monitored by flow cytometry and analyzed using CELLQUEST™ software (Becton Dickinson). […]

[1] = tested on: ovalbumin-sensitized mice; assay: Allergen-induced accumulation of granulocytes in bronchoalveolar lavage (BAL) fluid; assay type: in vivo, BALB/c mice
Source text: In the combined allergic rhinitis and asthma model, non-anaesthetized mice are locally sensitized with ovalbumin intranasally (i.n.), the primary route of allergen exposure in man (McCusker, et al. (2002) supra). Normal saline was used as a control. In both models sensitized mice produce ovalbumin-specific IgE and upon i.n. ovalbumin challenge, develop inflammation and eosinophilia in both the upper and lower airways as well as IL-13-dependent airway hyperresponsiveness (McCusker, et al. (2002) supra; Wang and McCusker (2005) Clin. Exp. Allergy 35(8):1104-11). Thus, in each model of allergic airway disease, the STAT-6-IP or control STAT-6-CP was given locally, i.n., to non-anaesthetized, ovalbumin-sensitized mice prior to each of five daily allergen challenges. Consistent with its ability to inhibit STAT-6-dependent activity in vitro, the STAT-6-IP inhibited allergen-induced accumulation of granulocytes in the lung, quantified in bronchoalveolar lavage (BAL) fluid, independent of the site of sensitization (Table 5).
Six-to-eight week-old male BALB/c mice were obtained from Harlan-Sprague Dawley (Indianapolis, Ind.) and were housed in a conventional animal facility. For each experimental condition, a minimum of 6-8 animals was used. Awake animals were sensitized five days per week for each of two weeks by instillation in each nostril of 5 μL 1% ovalbumin in PBS. Alternatively, animals were sensitized by two weekly systemic, i.p. injections of 0.025% ovalbumin mixed with 4 mg/mL Al(OH)3. Following two weeks rest, animals were challenged for five days by intranasal instillation of 1% ovalbumin. […] The tail vein was cannulated for drug administration and heart rate was monitored by EKG. […] Respiratory system resistance was measured. […] Methacholine was injected through the tail vein at dose of 10, 20, 40, 80, 160, 320 μg/kg and the maximal resistance and elastance were recorded. […] Six fields were counted, each encompassing 100 cells per slide, and means obtained.

IL-13 = IL-13 in the BAL fluid (ELISA); assay type: in vivo, BALB/c mice; details: 150 μg peptide prior to each ovalbumin challenge; ovalbumin control 84.95, normal saline 55.67
Experimental: Six-to-eight week-old male BALB/c mice were obtained from Harlan-Sprague Dawley (Indianapolis, Ind.) and were housed in a conventional animal facility. For each experimental condition, a minimum of 6-8 animals was used. Awake animals were sensitized five days per week for each of two weeks by instillation in each nostril of 5 μL 1% ovalbumin in PBS. Alternatively, animals were sensitized by two weekly systemic, i.p. injections of 0.025% ovalbumin mixed with 4 mg/mL Al(OH)3. Following two weeks rest, animals were challenged for five days by intranasal instillation of 1% ovalbumin. Animals treated with peptides received the STAT-6-IP (15, 50, or 150 μg) or STAT-6-CP (50 or 150 μg) in 10 μL PBS 30 minutes prior to each ovalbumin challenge. Twenty-four hours after the last ovalbumin challenge, mice were deeply anaesthetized with xylazine and sodium pentobarbital and paralyzed with pancuronium bromide. The tail vein was cannulated for drug administration and heart rate was monitored by EKG. […] Respiratory system resistance was measured. […] Methacholine was injected through the tail vein at dose of 10, 20, 40, 80, 160, 320 μg/kg and the maximal resistance and elastance were recorded. […] Six fields were counted, each encompassing 100 cells per slide, and means obtained.

IL-4 = assay: Ovalbumin-induced IL-4 production by splenocytes from ovalbumin-sensitized mice (ELISA); assay type: cell-based, BALB/c mice; details: ovalbumin 100 μg/mL + 100 μM peptide added daily, four days; ovalbumin alone 309.3 ± 49.6
Experimental: as §1, §2

[2] = tested on: CD4+ lymphocytes expressing IL-4; assay: Intracellular cytokine staining of CD4+ T cells producing IL-4 (flow cytometry); assay type: cell-based, BALB/c mice; details: ovalbumin + 100 μM peptide, ovalbumin alone 90.21 ± 8.02
Experimental: The levels of mRNA encoding IL-4, IL-13 and IFN-gamma were also evaluated by semiquantitative RT-PCR analysis. Ovalbumin-induced expression of both IL-4 and IL-13 mRNA was inhibited in splenocytes cultured with the STAT-6-IP and not the STAT-6-CP. […] The number of CD4+ T cells producing IL-4 was also quantified by intracellular cytokine staining. When splenocytes from ovalbumin-sensitized mice were cultured with ovalbumin, there was a significant increase in the number of CD4+ lymphocytes expressing IL-4 (Table 4). The increase in IL-4 expression was abrogated in splenocytes cultured with ovalbumin in the presence of the STAT-6-IP, while the STAT-6-CP had no effect.
as §2, with “Splenocytes were cultured for four days in the presence or absence of 100 μg/mL ovalbumin, either alone or with 100 μM STAT-6-IP or STAT-6-CP, which were added daily.” left out

## YARAAARQARAGRGFVSTT [STAT-6-CP, STAT-6 Tyr-641 mutant, control peptide]
IFN-gamma
  IFN-gamma (pg/mL ± SEM), culture supernatant: 513.6 ± 118.3 pg/mL
[1]; dose response, 150 μg peptide, ovalbumin control 22.33, normal saline 5.00
  Granulocytes/100 counted from BAL (±SEM): 21.42 ± 1.56 Granulocytes/100 counted
[1]; i.n. ovalbumin sensitization, 50 microgram peptide i.n. prior to each ovalbumin challenge, ovalbumin control 26.73
  Granulocytes/100 counted from BAL (±SEM): 22.27 (±0.60) Granulocytes/100 counted
[1]; i.p. ovalbumin sensitization, 50 microgram peptide i.n. prior to each ovalbumin challenge, ovalbumin control 37.57
  Granulocytes/100 counted from BAL (±SEM): 34.75 (±0.68) Granulocytes/100 counted
IL-13
  IL-13, pg/mL (±SEM), BAL fluid: 75.75 (±5.60) pg/mL
IL-4
  IL-4 (pg/mL ± SEM), culture supernatant: 212.9 ± 4.1 pg/mL
[2]
  Percentage of IL4 positive cells ± SEM: 92.13 ± 5.62 Percentage
